Data taken from US10004716B2, “Therapeutic/ preventive agent containing coumarin derivative as active ingredient” (NIPPON ZOKI PHARMACEUTICAL CO., LTD., priority 2014, dated 2018).

Legend:
CTGF gene expression = assay: Evaluation II: TGF-β-induced gene expression of fibrosis-related factors in NHLF cells: CTGF; format: cell-based, human; settings: 30 μM test substance, 200 μg/mL pirfenidone, 30 μM DEX, 1.0 μM TPCA-1 or 10 μM FP 2 hours, then TGF-β 0.5 ng/mL 4 hours, n = 4
Procedure: (§1) NHLF cells were sown so as to make their amount 5×10^4 cells/well to each well of a 12-well plate and incubated to an extent of 80% confluent in a medium where fibroblast growth medium 2 supplement mix (FGM-2 SingleQuots, Lonza) was added to a fibroblast basal medium (FBM, Lonza). After that, incubation was conducted for 2 hours in a DMEM medium containing 30 μM of a test substance, 200 μg/mL of pirfenidone, 30 μM of dexamethasone (DEX), 1.0 μM of TPCA-1 or 10 μM of fluticasone propionate (FP) and, after TGF-β was added thereto so as to make its final concentration 0.5 ng/mL, incubation was carried out for 4 hours more.
(§2) With regard to the extraction of RNA from NHLF cells, the synthesis of cDNA from RNA and the action of the test substance to gene expression of fibrosis-related factors [CFGF, TGF-β1, fibronectin and Col 1], the tests were carried out in the same manners as in (2) and (3) of the above Test Example 3.

TGF-β1 gene expression = assay: Evaluation II: TGF-β-induced gene expression of fibrosis-related factors in NHLF cells: TGF-β1; format: cell-based, human; settings: 30 μM test substance, 200 μg/mL pirfenidone, 30 μM DEX, 1.0 μM TPCA-1 or 10 μM FP 2 hours, then TGF-β 0.5 ng/mL 4 hours, n = 4
Procedure: as §1, §2

[1] = system: fibronectin gene expression; assay: Evaluation II: TGF-β-induced gene expression of fibrosis-related factors in NHLF cells: fibronectin; format: cell-based, human; settings: 30 μM test substance, 200 μg/mL pirfenidone, 30 μM DEX, 1.0 μM TPCA-1 or 10 μM FP 2 hours, then TGF-β 0.5 ng/mL 4 hours, n = 4
Procedure: as §1, §2

Col 1 gene expression = assay: Evaluation II: TGF-β-induced gene expression of fibrosis-related factors in NHLF cells: Col 1; format: cell-based, human; settings: 30 μM test substance, 200 μg/mL pirfenidone, 30 μM DEX, 1.0 μM TPCA-1 or 10 μM FP 2 hours, then TGF-β 0.5 ng/mL 4 hours, n = 4
Procedure: as §1, §2

[2] = system: mice where pulmonary fibrosis was induced by bleomycin; assay: Lung wet weight increase of mice where pulmonary fibrosis was induced by bleomycin; format: in vivo; settings: ICR male mice, bleomycin 2 mg/kg i.v. 5 days; test substance 50 mg/kg or pirfenidone 200 mg/kg per os twice daily for 2 weeks; normal control 205, diseased control 303
Procedure: Bleomycin (2 mg/kg) was repeatedly injected intravenously for 5 days to ICR male mice. The mice were organized into 4 groups of normal control group, diseased control group, test substance-administered group and pirfenidone-administered group.
A test substance was suspended in 0.5 w/v % carboxymethyl cellulose sodium (CMC) and 50 mg/kg thereof was repeatedly administered per os with stirring twice daily for 2 weeks using an oral sonde for rats. Pirfenidone was suspended in 0.5 w/v % CMC and 200 mg/kg thereof was repeatedly administered per os with stirring twice daily for 2 weeks using an oral sonde for rats. To the normal control group and the diseased control group, 0.5 w/v % CMC was repeatedly administered per os according to the same administration schedule. After finishing the administration period, both lungs were excised from the mice and their wet weight was measured.

NF-κB = assay: Suppressive action to NF-κB activation (luciferase reporter, HEK293T cells, TNF-α); format: cell-based, human; settings: HEK293T cells with NF-κB reporter; test substance 25 μml/mL 1 hour, then TNF-α 10 ng/mL 5 hours; stimulated TNF-α = 100
Procedure: A preparation solution containing pGL4.32 [luc2P/NF-κB-RE/Hygrol] (Promega) which is an NF-κB reporter vector, pGL4.74 [hRluc/TK] (Promega) which is a control vector and Lipofectamine LTX (Life Technologies) which is a gene transfer agent was added to human embryo kidney cells (HEK293T cells) sown onto a […] whereupon there were prepared the cells which transiently express a reporter protein.
After 24 hours from the gene transfer, transient expression cells were peeled off by treating with trypsin, sown on a poly-lysine coated white 96-well plate and incubated for one night. The test substance was added to as to make its final concentration 25 μml/mL and, after pre-incubating for 1 hour, TNF-α was added thereto so as to make its final concentration 10 ng/mL followed by incubating for 5 hours more. The cells were dissolved and the activities of a firefly luciferase and a renilla luciferase were measured. Rate of the luminescent intensity by addition of each drug to the luminescent intensity by stimulation with TNF-α were calculated.

NC(=O)Nc1sc(-c2ccc(F)cc2)cc1C(N)=O [TPCA-1]
Copy Numbers per 10000 Copies of GAPDH CTGF (CTGF gene expression): 461.2 copies per 10000 copies of GAP | Copy Numbers per 10000 Copies of GAPDH TGF-β1 (TGF-β1 gene expression): 886.9 copies per 10000 copies of GAP | Copy Numbers per 10000 Copies of GAPDH Fibronectin [1]: 3757.9 copies per 10000 copies of GAP | Copy Numbers per 10000 Copies of GAPDH Col 1 (Col 1 gene expression): 840.4 copies per 10000 copies of GAP

Cc1ccc(=O)n(-c2ccccc2)c1 [Pirfenidone]
Wet Lung Weight [2]: 242 mg | Copy Numbers per 10000 Copies of GAPDH CTGF (CTGF gene expression): 180.6 copies per 10000 copies of GAP | Copy Numbers per 10000 Copies of GAPDH TGF-β1 (TGF-β1 gene expression): 962.5 copies per 10000 copies of GAP | Copy Numbers per 10000 Copies of GAPDH Fibronectin [1]: 1689.7 copies per 10000 copies of GAP | Copy Numbers per 10000 Copies of GAPDH Col 1 (Col 1 gene expression): 1027.6 copies per 10000 copies of GAP

CCC(=O)O[C@]1(C(=O)SCF)[C@H](C)C[C@H]2[C@@H]3C[C@H](F)C4=CC(=O)C=C[C@]4(C)[C@@]3(F)[C@@H](O)C[C@@]21C [FP, fluticasone propionate]
Copy Numbers per 10000 Copies of GAPDH CTGF (CTGF gene expression): 1166.8 copies per 10000 copies of GAP | Copy Numbers per 10000 Copies of GAPDH TGF-β1 (TGF-β1 gene expression): 450.6 copies per 10000 copies of GAP | Copy Numbers per 10000 Copies of GAPDH Fibronectin [1]: 3603.2 copies per 10000 copies of GAP | Copy Numbers per 10000 Copies of GAPDH Col 1 (Col 1 gene expression): 593.3 copies per 10000 copies of GAP

O=c1oc2c(OS(=O)(=O)c3cccc([N+](=O)[O-])c3)cccc2cc1NS(=O)(=O)c1cccc([N+](=O)[O-])c1 [Compound 17, 3-[(3-Nitrophenyl)sulfonylamino]-2-oxochromen-8-yl 3-nitrobenzenesulfonate]
Luminescent Intensity to Stimulated TNF-α (%) (NF-κB): 0.1%

C[C@@H]1C[C@H]2[C@@H]3CCC4=CC(=O)C=C[C@]4(C)[C@@]3(F)[C@@H](O)C[C@]2(C)[C@@]1(O)C(=O)CO [DEX, dexamethasone]
Copy Numbers per 10000 Copies of GAPDH CTGF (CTGF gene expression): 1010.1 copies per 10000 copies of GAP | Copy Numbers per 10000 Copies of GAPDH TGF-β1 (TGF-β1 gene expression): 546.9 copies per 10000 copies of GAP | Copy Numbers per 10000 Copies of GAPDH Fibronectin [1]: 4314.6 copies per 10000 copies of GAP | Copy Numbers per 10000 Copies of GAPDH Col 1 (Col 1 gene expression): 610.7 copies per 10000 copies of GAP
